{"source": "patent US20260207560A1", "about": "“PLURALITY OF GRANULES” (priority 2022, published 2026)", "experiment": "Forced degradation study of the active substance (HPLC assay, observations)", "data": [{"smiles": "CCS(=O)(=O)Nc1ccc2c(c1)nc(C(C)(C)C)n2CC1CCC(F)(F)CC1", "note": "[Compound I, N-(2-(tert-butyl)-1-((4,4-difluorocyclohexyl)methyl)-1H-benzimidazol-5-yl)ethanesulfonamide]", "values": [{"measurement": "Sample observations", "setting": "Test 1 Control (solution, ambient temperature)", "result": "Clear colourless solution. No change over study period."}, {"measurement": "Assay of active substance", "setting": "Test 1 solution control, 0 days", "result": 99.40, "unit": "area %"}, {"measurement": "Assay of active substance", "setting": "Test 1 solution control, 3 days", "result": 99.42, "unit": "area %"}, {"measurement": "Assay of active substance", "setting": "Test 1 solution control, 7 days", "result": 99.30, "unit": "area %"}, {"measurement": "Assay of active substance", "setting": "Test 1 solution control, 11 days", "result": 99.39, "unit": "area %"}, {"measurement": "Sample observations", "setting": "Test 2 Solid state 100° C.", "result": "Off-white solid turning to very faint orange solid over study"}, {"measurement": "Assay of active substance", "setting": "Test 2 solid state at 100° C., 3 days", "result": 99.43, "unit": "area %"}, {"measurement": "Assay of active substance", "setting": "Test 2 solid state at 100° C., 7 days", "result": 99.40, "unit": "area %"}, {"measurement": "Sample observations", "setting": "Test 3 Acid 60° C.", "result": "Clear colourless solution. No change over study period."}, {"measurement": "Sample observations", "setting": "Test 3 Acid (1M, ambient temperature)", "result": "Clear colourless solution. No change over study period."}, {"measurement": "Assay of active substance", "setting": "Test 3 acid (1M) ambient temperature, 3 days", "result": 99.40, "unit": "area %"}, {"measurement": "Assay of active substance", "setting": "Test 3 acid (1M) ambient temperature, 7 days", "result": 99.41, "unit": "area %"}, {"measurement": "Assay of active substance", "setting": "Test 3 acid (1M) at 60° C. until day 7, 80° C. until day 11, 11 days", "result": 98.87, "unit": "area %"}, {"measurement": "Assay of active substance", "setting": "Test 3 acid (1M) at 60° C., 3 days", "result": 99.37, "unit": "area %"}, {"measurement": "Assay of active substance", "setting": "Test 3 acid (1M) at 60° C., 7 days", "result": 99.35, "unit": "area %"}, {"measurement": "Sample observations", "setting": "Test 4 Base 40° C.", "result": "Clear colourless solution. No change over study period."}, {"measurement": "Sample observations", "setting": "Test 4 Base (0.5M, ambient temperature)", "result": "Clear colourless solution. No change over study period."}, {"measurement": "Assay of active substance", "setting": "Test 4 base (0.5M) ambient temperature, 3 days", "result": 99.40, "unit": "area %"}, {"measurement": "Assay of active substance", "setting": "Test 4 base (0.5M) ambient temperature, 7 days", "result": 99.37, "unit": "area %"}, {"measurement": "Assay of active substance", "setting": "Test 4 base (0.5M) at 60° C. until day 7, 80° C. until day 11, 11 days", "result": 99.16, "unit": "area %"}, {"measurement": "Assay of active substance", "setting": "Test 4 base (0.5M) at 60° C., 3 days", "result": 99.34, "unit": "area %"}, {"measurement": "Assay of active substance", "setting": "Test 4 base (0.5M) at 60° C., 7 days", "result": 99.32, "unit": "area %"}, {"measurement": "Sample observations", "setting": "Test 5 Heat 60° C. (solution)", "result": "Clear colourless solution. No change over study period"}, {"measurement": "Assay of active substance", "setting": "Test 5 solution at 60° C. until day 7, 80° C. until day 11, 11 days", "result": 98.00, "unit": "area %"}, {"measurement": "Assay of active substance", "setting": "Test 5 solution at 60° C., 3 days", "result": 99.13, "unit": "area %"}, {"measurement": "Assay of active substance", "setting": "Test 5 solution at 60° C., 7 days", "result": 99.34, "unit": "area %"}, {"measurement": "Sample observations", "setting": "Test 6 Peroxide (1.5%)", "result": "Clear colourless solution. No change over study period"}, {"measurement": "Assay of active substance", "setting": "Test 6 peroxide (1.5%), 3 days", "result": 98.50, "unit": "area %"}, {"measurement": "Assay of active substance", "setting": "Test 6 peroxide (1.5%), 7 days", "result": 97.75, "unit": "area %"}, {"measurement": "Assay of active substance", "setting": "Test 6 peroxide (1.5%), 13 days", "result": 96.58, "unit": "area %"}, {"measurement": "Sample observations", "setting": "Test 7 Photostability (Solution Control)", "result": "Clear colourless solution. No change over study period."}, {"measurement": "Assay of active substance", "setting": "Test 7 photocontrol solution", "result": 99.40, "unit": "area %"}, {"measurement": "Sample observations", "setting": "Test 8 Photostability (Solution Treated)", "result": "Clear colourless solution turning to a clear yellow solution"}, {"measurement": "Assay of active substance", "setting": "Test 8 photo treated solution, 1.92 million lux hours, near-UV 374.6 Whm^−2", "result": 74.53, "unit": "area %"}, {"measurement": "Sample observations", "setting": "Test 9 Photostability (Solid Control)", "result": "Off white solid. No change over study period."}, {"measurement": "Assay of active substance", "setting": "Test 9 photocontrol solid", "result": 99.40, "unit": "area %"}, {"measurement": "Sample observations", "setting": "Test 10 Photostability (Solid Treated)", "result": "Off-white solid turning to very faint orange solid over study"}, {"measurement": "Assay of active substance", "setting": "Test 10 phototreated solid, 1.92 million lux hours, near-UV 374.6 Whm^−2", "result": 99.31, "unit": "area %"}, {"measurement": "Forced degradation outcome (summary)", "setting": "peroxide, 1M acid, 0.5M base and solution when extended to 80° C.", "result": "slight degradation"}, {"measurement": "Forced degradation outcome (summary)", "setting": "solution at room temperature, solid at 100° C., 1M acid and 0.5M base at room temperature and 60° C., solution at 60° C., photostability as a solid", "result": "stable to degradation"}, {"measurement": "Forced degradation outcome (summary)", "setting": "solution under photostability conditions", "result": "Major degradation"}]}]}
